Key:
CaCo2 = assay: Cell viability/proliferation; format: cell-based; settings: FIG. 10, preliminary analysis
Source text: (§1) Example 5: In a preliminary analysis, the inventors investigated the effect of 16 cannabinoid compounds (Δ9-THCV-C3, Δ9-THCVA-C3 A, Δ9-THCA-C5 A, Δ9-THC-C5, Δ8-THC-C5, CBN-C5, CBL-C5, CBLA-C5 A, (E)-CBG-C5, (E)-CBGA-C5 A, CBD-C5, CBDV-C3, CBDVA-C3, CBDA-C5, CBC-C5, and CBCA-C5 A) on cell viability/proliferation in two colorectal carcinoma cell lines (HCT116 and CaCo2) (FIG. 10).

HCT116 = assay: Cell viability/proliferation; format: cell-based; settings: FIG. 10, preliminary analysis
Source text: as §1

[1] = tested on: melanoma cell lines (COLO38 and OCM-1); settings: CB2 and CB1 expressing melanoma cell lines COLO38 and OCM-1; cited from earlier work
[2] = tested on: human A375, SK-MEL-28, and CHL-1 melanoma cell lines; settings: A375, SK-MEL-28, CHL-1; Armstrong et al.; cited from earlier work

Compound	effect in reducing cell viability (CaCo2)	effect in reducing cell viability (HCT116)	viability [1]	effect of treatment on melanoma cell lines [2]
CCCCCc1cc(O)c2c(c1)OC(C)(CCC=C(C)C)C=C2 (racemic) [CBC, (±)-cannabichromene]	strongest effect in reducing cell viability	strongest effect in reducing cell viability		
CCCCCc1cc(O)c2c(c1)OC(C)(C)[C@@H]1CC=C(C)C[C@@H]21 (relative stereo) [Δ8THC, (−)-Δ^8-trans-(6aR,10aR)-Δ^8-tetrahydrocannabinol]	strongest effect in reducing cell viability	strongest effect in reducing cell viability		
CCCCCc1cc(O)c(C/C=C(\C)CCC=C(C)C)c(O)c1 [CBG, cannabigerol]	strongest effect in reducing cell viability	strongest effect in reducing cell viability		
CCCCCc1cc(O)c2c(c1)OC(C)(C)c1ccc(C)cc1-2 [CBN, cannabinol]	strongest effect in reducing cell viability	strongest effect in reducing cell viability		
Cc1c(C(=O)c2cccc3ccccc23)c2cccc3c2n1[C@H](CN1CCOCC1)CO3 [WIN55,212-2]			reduce viability in a CB1/CB2-independent manner	
CCCCCc1cc(O)c2c(c1)OC(C)(C)[C@@H]1CCC(C)=C[C@@H]21 [Δ9THC, Δ^9-tetrahydrocannabinol, reference compound]	strongest effect in reducing cell viability	strongest effect in reducing cell viability		activation of autophagy, loss of cell viability, and activation of apoptosis
(−)-cannabidiol [CBD, reference compound]	strongest effect in reducing cell viability	strongest effect in reducing cell viability		
